The values that follow are results of earlier work, collected in patent US20250258179A1, “Method for Estimating Meal Component Bioavailability” (The Texas A&M University System, priority 2024, published 2025).

Molecules are shown by their SMILES.

This data set relates to critically ill patients. Conditions: recently shown.

`CC(C)(O)CC(=O)O` [HMB, hydroxy-methylbutyric acid]: the protein breakdown result is reported as “reduction in protein breakdown”.
